Tests used:
Assay type in all cases: in vivo
Phytophthora infestans = assay: whole plant or invertebrate; conditions: in Solanum tuberosum, read-out: disease control
[1] = tested on: Pyrenophora teres (Helminthosporium teres); assay: Pyrenophora teres (Helminthosporium teres) / barley / preventative (net blotch on barley); conditions: barley plants cv. Regina, inoculated 2 days after application, vs untreated control, read-out: disease control
Procedure: Pyrenophora teres (Helminthosporium teres)/Barley/Preventative (Net Blotch on Barley) 1-week old barley plants cv. Regina are treated with the formulated test compound in a spray chamber. The test plants are inoculated by spraying them with a spore suspension 2 days after application. The inoculated test plants are incubated at 20° C. and 95% rh and the percentage leaf area covered by disease is assessed when an appropriate level of disease appears on untreated check plants (5-7 days after application).

Alternaria solani = Alternaria solani / tomato / preventative (Alternaria on tomato); conditions: tomato plants cv. Roter Gnom, inoculated two days after application, vs untreated control, read-out: disease control
Procedure, shortened: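 Four-week-old tomato plants cv. Roter Gnom sprayed preventatively with formulated compound, then spore-inoculated two days later. Kept at 22/18° C. (day/night), 95% rh in greenhouse.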

[2] = tested on: Mycosphaerella arachidis (Cercospora arachidicola); assay: Mycosphaerella arachidis (Cercospora arachidicola) / peanut / preventative; conditions: peanut plants cv. Georgia Green, inoculated one day after application, vs untreated control, read-out: disease control
Procedure: Mycosphaerella arachidis (Cercospora arachidicola)/Peanut/Preventative 3-week old peanut plants cv. Georgia Green are treated with the formulated test compound in a spray chamber. The test plants are inoculated by spraying them with a spore suspension on their lower leaf surface one day after application. After an incubation period of 4 days under a plastic hood at 23° C. and 100% rh, the test plants are kept at 23° C./20° C. (day/night) and 70% rh in a greenhouse. The percentage leaf area covered by disease is assessed when an appropriate level of disease appears on untreated check plants (12-14 days after application).

Plasmopara viticola = Plasmopara viticola / grape / preventative (grape downy mildew); conditions: grape seedlings cv. Gutedel, inoculated one day after application, vs untreated control, read-out: disease control
[3] = tested on: Erysiphe necator (Uncinula necator); assay: Erysiphe necator (Uncinula necator) / grape / preventative (powdery mildew on grape); conditions: grape seedlings cv. Gutedel, inoculated 1 day after application, vs untreated control, read-out: disease control
Procedure: Erysiphe necator (Uncinula necator)/Grape/Preventative (Powdery Mildew on Grape) 5-week old grape seedlings cv. Gutedel are treated with the formulated test compound in a spray chamber. The test plants are inoculated by shaking plants infected with grape powdery mildew above them 1 day after application. The inoculated test plants are incubated at 24/22° C. (day/night) and 70% rh under a light regime of 14/10 h (light/dark) and the percentage leaf area covered by disease is assessed when an appropriate level of disease appears on untreated check plants (7-9 days after application).

[4] = tested on: Botryotinia fuckeliana (Botrytis cinerea); assay: Botryotinia fuckeliana (Botrytis cinerea) / tomato / preventative (Botrytis on tomato); conditions: tomato plants cv. Roter Gnom, inoculated two days after application, vs untreated control, read-out: disease control
Procedure: Botryotinia fuckeliana (Botrytis cinerea)/Tomato/Preventative (Botrytis on Tomato) 4-week old tomato plants cv. Roter Gnom are treated with the formulated test compound in a spray chamber. The test plants are inoculated by spraying them with a spore suspension two days after application. The inoculated test plants are incubated at 20° C. and 95% rh in a greenhouse and the percentage leaf area covered by disease is assessed when an appropriate level of disease appears on untreated check plants (5-6 days after application).

[5] = tested on: Mycosphaerella graminicola (Septoria tritici); assay: Mycosphaerella graminicola (Septoria tritici) / wheat / preventative (Septoria tritici leaf spot on wheat); conditions: Zymoseptoria tritici, wheat plants cv. Riband, inoculated one day after application, vs untreated control, read-out: disease control
Procedure: Mycosphaerella graminicola (Septoria tritici)/Wheat/Preventative (Septoria tritici Leaf Spot on Wheat) 2-week old wheat plants cv. Riband are treated with the formulated test compound in a spray chamber. The test plants are inoculated by spraying a spore suspension on them one day after application. After an incubation period of 1 day at 22° C./21° C. (day/night) and 95% rh, the test plants are kept at 22° C./21° C. (day/night) and 70% rh in a greenhouse. The percentage leaf area covered by disease is assessed when an appropriate level of disease appears on untreated check plants (16-19 days after application).

[6] = tested on: Phaeosphaeria nodorum (Septoria nodorum); assay: Phaeosphaeria nodorum (Septoria nodorum) / wheat / leaf disc preventative (glume blotch); conditions: Parastagonospora nodorum, foliar, wheat leaf segments cv. Kanzler on agar, inoculated 2 days after application, vs untreated control, read-out: disease control
Procedure, shortened: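 Wheat cv. Kanzler leaf segments on agar sprayed with formulated compound in water, inoculated with spore suspension 2 days later. Incubated at 20° C., 75% rh, 12 h light/12 h dark; percent disease control versus untreated scored when untreated discs show damage (5-7 days after application).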

Measured: pest or weed control at 200 ppm

Cc1cc(F)ccc1-c1cccc(-c2ncc3ccccc3n2)n1 [2/55]
not listed: [5] | [6]
≥ 80%: all other assays above

Cc1ccc(-c2ncc3ccccc3n2)nc1-c1cccc(F)c1 [3/77]
≥ 80%: Phytophthora infestans | Alternaria solani | Plasmopara viticola | [5]

Cc1ccc(-c2ncc3ccccc3n2)nc1-c1ccccc1 [3/71]
not listed: [2] | [3] | [6]
≥ 80%: all other assays above

Cc1ccc(-c2ncc3ccccc3n2)nc1-c1ccc(F)cc1 [3/72]
≥ 80%: Phytophthora infestans | [1] | Alternaria solani | Plasmopara viticola | [4]

Cc1ccc(-c2ncc3ccccc3n2)nc1-c1ccc(F)c(F)c1 [3/89]
not listed: Phytophthora infestans | [6]
≥ 80%: all other assays above

Cc1ccc(-c2ncc3ccccc3n2)nc1-c1cc(F)cc(F)c1 [3/90]
not listed: [6]
≥ 80%: all other assays above

Cc1ccc(-c2ncc3ccccc3n2)nc1Oc1ccccc1 [5/18]
≥ 80%: Phytophthora infestans | [1] | Alternaria solani | Plasmopara viticola | [4]

COc1cccc(-c2cccc(-c3ncc4ccccc4n3)n2)c1F [2/60]
≥ 80%: Phytophthora infestans | [6] | Alternaria solani | Plasmopara viticola | [4]

Cc1cc(-c2nc(-c3ncc4ccccc4n3)ccc2C)ccc1F [3/85]
not listed: [6]
≥ 80%: all other assays above

Cc1ccc(-c2ncc3ccccc3n2)nc1Cc1ccccc1 [7/17]
≥ 80%: Phytophthora infestans | Alternaria solani | [2] | [5]

c1ccc(Cc2cccc(-c3ncc4ccccc4n3)n2)cc1 [6/17, 2-(6-benzylpyridin-2-yl)-quinazoline]
not listed: [5] | [6]
≥ 80%: all other assays above

Cc1ccccc1-c1nc(-c2ncc3ccccc3n2)ccc1C [3/76]
not listed: [3] | [6]
≥ 80%: all other assays above

COc1ccc(-c2nc(-c3ncc4ccccc4n3)ccc2C)cc1F [3/92, 2-[6-(3-fluoro-4-methoxy-phenyl)-5-methylpyridin-2-yl]-quinazoline]
not listed: [6]
≥ 80%: all other assays above

Cc1cccc(-c2nc(-c3ncc4ccccc4n3)ccc2C)c1 [3/75]
not listed: [1] | [6]
≥ 80%: all other assays above

Clc1cccc(Cc2cccc(-c3ncc4ccccc4n3)n2)c1 [6/11]
not listed: Phytophthora infestans | Plasmopara viticola | [6]
≥ 80%: all other assays above
